The source of these data is patent publication US8536332B2, “Modulating signal transduction pathways with substituted pyridol [2,3-b] pyrazines” (Aeterna Zentaris GmbH, priority 2007, dated 2013).

In one data set the test system is p110alpha H107R. The note with it: cited from earlier work.
The next data set addresses T1, PI3Kalpha (Homo sapiens, UniProt P42336).
T1 construct: purchased Upstate #14-602
In words: Cell-free kinase assay PI3K-ALPHA. The data set is classed as biochemical. The method, then: (§1) The inhibitory effect of the compounds of the invention was tested on various human serine/threonine kinases, tyrosine kinases and lipid kinases in enzymatic assays. Recombinant human kinases, for example PI3Kalpha, -beta, -gamma, -delta, Erk2, p38alpha, p38gamma, Jnk1, Jnk2 and others were used, in some cases as full-length kinases, in some cases as truncated fragments—but at least consisting of the functional kinase domains. The commercial kinase proteins (Proqinase, Upstate) were used as recombinant fusion proteins with GST (glutathione S-transferase) tag or His tag. Depending on the substrate type, the different kinase reactions were quantified by suitable ALPHA™ beads (PerkinElmer).
(§2) The kinase assays for PI3K and Erk are described in detail and selected test results are cited below. […] Subsequently, the kinase reaction was stopped by adding the ALPHA bead mix (10 μg/ml, #6760603/PerkinElmer), preincubated with 1 nM GST:Grp1 fusion protein (Upstate) and […] (#C-39B6/Echelon) in 50 mM Hepes, 50 mM NaCl, 50 mM EDTA and 0.1% BSA, and left to stand overnight. • b) Erk2-ALPHA: The test substance, 0.625 ng of Erk2 (#14-173, Upstate), 10 μM ATP and 15 nM biotinylated MBP (myelin basic protein) substrate were incubated on a 384-well Optiplate (Perkin Elmer) in a volume of 15 μl for 1 h in 25 mM Tris, 10 mM MgCl2, 0.1% Tween-20, 100 μM NaVO4, 2 mM DTT at pH 7.5. The kinase reaction was stopped by adding 10 μl of the ALPHA bead mix (10 μg/ml, #6760617/PerkinElmer), pre-incubated with anti-phospho MBP antibody (320 pM, #05-429/Upstate), in 25 mM Tris, 200 mM NaCl, 100 mM EDTA and 0.3% BSA, and left to stand overnight.
(§3) The luminiscence was detected the next morning in a Fusion™ alpha instrument (Perkin Elmer).
(§4) The calculation of % inhibition values per substance concentration was done by means of the following formula from the raw data determined in the Fusion™ alpha:
(§5) The controls were determined 8 fold and the substance samples 2 fold. 0% control contained neither any ATP nor any substrate. The 100% control contained no test substance. The IC50 values were determined with GraphPadPrism.

Data set [1] can be described thus: Cell-free kinase assay Erk2-ALPHA. The data set is classed as biochemical, human. The note with it: cell-free kinase assay; MAPK = Erk2, p38alpha, Jnk1+Jnk2 of Table 1. The method, then: as §1, §2, §3, §4, §5
Another data set has as its target T2, Erk2 (Mus musculus, UniProt P63085).
T2 construct: purchased Upstate #14-173
The experiment in a line: Cell-free kinase assay Erk2-ALPHA. Type of data set: biochemical, human. The note with it: 10 μM ATP. On the procedure:
as §1, §2, §3, §4, §5

The target in another data set is p38alpha (Homo sapiens, UniProt Q16539). The experiment in a line: Cell-free kinase assay (ALPHA technology) p38alpha. Type of data set: biochemical. The note with it: 10 μM ATP. The method, then:
as §1, §2, §3, §4, §5

The test system of the next data set is T3, Jnk1 + Jnk2.
T3 construct: fused on or other part: GST tag or His tag (commercial recombinant fusion proteins from Proqinase or Upstate)
In words: Cell-free kinase assay (ALPHA technology) Jnk1 + Jnk2. The data set is classed as biochemical, human. The note with it: 10 μM ATP. The method, then: as §1, §2, §3, §4, §5

The subject of another data set is MDA-MB468. The experiment in a line: XTT assay, anti-proliferative activity, MDA-MB468. The data set is classed as cell-based. The note with it: Homo sapiens, MDA-MB-468; 45 h incubation. The procedure, abridged: (§6)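 Hct116 (5000 cells/well) and MDA-MB468 (10000 cells/well) seeded overnight, then incubated with compound 45 h at 37 °C, 5% CO2. XTT (325 μg/ml) plus PMS (2.5 μg/ml) added for 3 h, formazan read at 490 nm; % inhibition versus no-compound and no-cell controls, EC50 fitted.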
Background: Tetrazolium dyes change colour on reduction, which living cells bring about.

In another data set the test system is Hct116. The experiment in a line: XTT assay, anti-proliferative activity, Hct116. Type of data set: cell-based. The note with it: Homo sapiens, HCT-116; 45 h incubation. The procedure, abridged:
as §6

The subject of another data set is Phospho-Akt (Ser 473). The experiment in a line: Cellular substrate phosphorylation (Western blotting), PI3K →pAkt. Type of data set: cell-based, human. On the procedure:
(§7) This method enables a statement of whether the kinase modulator investigated achieves the desired effect in a cellular context too, i.e., in this case, a substrate protein downstream of the target kinase is examined for its phosphorylation status. To this end, the cells incubated with substance are lysed and the overall protein is separated on a reducing polyacrylamide gel. Subsequently, the proteins are transferred to a PVDF membrane by Western blotting and the substrate bands sought are made visible with specific antibodies and a suitable detection method. The substrate proteins down-stream of the target kinases are detected simultaneously with an anti-phospho antibody which is specific in each case and a total antibody which recognizes the substrate total protein. The duplex technology of the ODYSSEY imager (LiCOR) enables this simultaneous measurement. The intensity of the total substrate bands is employed to normalize and quantify the phosphorylation inhibition or activation.
(§8) Suitable tumor cell lines (e.g. BxPC3, Hct116 or MDA MB468) were seeded into 6-well microtitre plates in a defined cell count (e.g. 350 000 cells/well for BxPC3 and Hct116) in the particular standard complete media and then incubated overnight at 37° C., 5% CO2 and 95% air humidity. Afterwards, the cells were incubated for 24 h under serum-reduced conditions, i.e. in the particular medium except at only 0.25% serum. The test substances were made up as stock solutions (10 mM) in DMSO and incubated with the cells at final concentrations of 5, 15.8 and 50 μM for 5 h. This was followed by cell lysis in 25 mM Tris, 150 mM NaCl, 10 mM sodium pyrophosphate, 2 mM EGTA, 25 mM beta-glycerophosphate, 25 mM NaF, 10% glycerol, 0.75% NP-40, 100 μM NaVO4 buffer. After protein quantification using the BCA (bicinchonic acid protein assay kit, Sigma) assay, amounts of protein of about 20 μg per track were separated on a Lämmli polyacrylamide gel and then transferred onto a PVDF membrane (Millipore) by semi-dry Western blotting at 0.8 mA/cm^2 for 1 h. This was followed by prehybridization of the membrane for 1 hour in I-block reagent (Applied Biosystems) and overnight simultaneous incubation with the specific antibodies. […] After the membrane had been washed, the secondary antibodies were incubated with anti-rabbit IR Dye 800 (#611-732-127, Rockland) for the phospho antibodies and anti-goat Alexa Fluor 680 (#A-21081, […]) for the total protein antibodies. After incubation for 30 min at room temperature in the dark, the hybridization of the detection antibody was detected on the membrane by scanning in an ODYSSEY imager (LiCOR).

The next data set concerns Phospho-p90RSK (S380). The experiment in a line: Cellular substrate phosphorylation (Western blotting), Erk →pRsk. Type of data set: cell-based, human. On the procedure: as §7, §8
On the technique in general: Immunoblotting shows a protein as a band on a membrane.

[2] abbreviates: Western blotting, concentrations of 5-50 μM.

pEC50, pIC50: −log10 of the molar value. Some results are limits rather than exact numbers.

T1 sequence (P42336 whole entry): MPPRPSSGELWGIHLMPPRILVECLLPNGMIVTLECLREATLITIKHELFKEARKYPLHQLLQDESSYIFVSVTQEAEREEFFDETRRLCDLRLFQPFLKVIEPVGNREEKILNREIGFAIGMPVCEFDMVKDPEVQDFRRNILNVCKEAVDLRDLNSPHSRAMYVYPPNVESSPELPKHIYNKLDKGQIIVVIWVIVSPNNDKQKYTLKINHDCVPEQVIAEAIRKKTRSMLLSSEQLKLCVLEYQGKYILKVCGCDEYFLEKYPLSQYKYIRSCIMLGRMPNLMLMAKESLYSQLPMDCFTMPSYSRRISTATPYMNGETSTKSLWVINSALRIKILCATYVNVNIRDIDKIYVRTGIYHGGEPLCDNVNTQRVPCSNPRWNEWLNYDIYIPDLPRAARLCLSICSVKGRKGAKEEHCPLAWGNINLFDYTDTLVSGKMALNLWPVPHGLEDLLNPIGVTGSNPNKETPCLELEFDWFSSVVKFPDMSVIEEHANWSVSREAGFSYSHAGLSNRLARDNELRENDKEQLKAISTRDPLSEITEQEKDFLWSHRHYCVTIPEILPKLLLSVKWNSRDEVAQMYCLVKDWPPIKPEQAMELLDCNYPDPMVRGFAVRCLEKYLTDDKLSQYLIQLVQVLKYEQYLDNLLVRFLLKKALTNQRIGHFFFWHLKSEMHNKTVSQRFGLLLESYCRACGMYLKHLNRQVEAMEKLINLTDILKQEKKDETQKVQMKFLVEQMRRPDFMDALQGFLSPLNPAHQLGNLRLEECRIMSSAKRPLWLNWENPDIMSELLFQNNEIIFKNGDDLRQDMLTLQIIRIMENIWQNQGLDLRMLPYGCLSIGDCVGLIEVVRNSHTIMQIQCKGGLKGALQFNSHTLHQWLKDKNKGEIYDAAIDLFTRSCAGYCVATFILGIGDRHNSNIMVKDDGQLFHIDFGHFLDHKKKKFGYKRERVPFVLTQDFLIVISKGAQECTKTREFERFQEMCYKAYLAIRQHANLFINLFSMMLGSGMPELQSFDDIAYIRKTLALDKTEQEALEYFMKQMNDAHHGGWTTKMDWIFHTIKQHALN
T1 sequence (P27986 whole entry partner): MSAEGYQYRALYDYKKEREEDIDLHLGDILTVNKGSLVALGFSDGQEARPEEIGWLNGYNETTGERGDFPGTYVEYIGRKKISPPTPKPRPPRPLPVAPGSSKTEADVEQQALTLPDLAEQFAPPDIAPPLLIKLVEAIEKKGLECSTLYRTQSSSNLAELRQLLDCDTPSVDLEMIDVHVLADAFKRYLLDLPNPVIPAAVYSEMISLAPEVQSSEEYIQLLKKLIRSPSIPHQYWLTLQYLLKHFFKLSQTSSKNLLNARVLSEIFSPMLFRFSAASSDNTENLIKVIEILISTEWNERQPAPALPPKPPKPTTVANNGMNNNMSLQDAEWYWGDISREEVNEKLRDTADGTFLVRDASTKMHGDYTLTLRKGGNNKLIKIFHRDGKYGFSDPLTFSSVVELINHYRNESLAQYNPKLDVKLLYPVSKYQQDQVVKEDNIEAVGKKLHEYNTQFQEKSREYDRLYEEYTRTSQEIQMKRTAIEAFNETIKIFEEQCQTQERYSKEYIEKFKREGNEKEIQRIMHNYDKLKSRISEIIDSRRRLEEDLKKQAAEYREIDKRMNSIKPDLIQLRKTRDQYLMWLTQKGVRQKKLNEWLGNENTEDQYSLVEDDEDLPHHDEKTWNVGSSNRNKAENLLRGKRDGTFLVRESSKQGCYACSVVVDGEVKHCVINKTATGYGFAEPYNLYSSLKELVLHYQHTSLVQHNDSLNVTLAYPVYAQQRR
T2 sequence (P63085 whole entry): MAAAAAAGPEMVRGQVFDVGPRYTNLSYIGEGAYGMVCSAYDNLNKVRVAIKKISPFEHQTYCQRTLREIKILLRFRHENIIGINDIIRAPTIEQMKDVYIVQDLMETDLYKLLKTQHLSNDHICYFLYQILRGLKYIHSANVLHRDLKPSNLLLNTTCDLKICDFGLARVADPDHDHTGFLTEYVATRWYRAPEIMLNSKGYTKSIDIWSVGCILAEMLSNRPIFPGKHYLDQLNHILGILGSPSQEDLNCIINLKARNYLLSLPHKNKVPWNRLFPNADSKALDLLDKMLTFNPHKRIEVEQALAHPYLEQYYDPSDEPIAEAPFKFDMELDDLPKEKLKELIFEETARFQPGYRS
Chain of p38alpha (Q16539 whole entry): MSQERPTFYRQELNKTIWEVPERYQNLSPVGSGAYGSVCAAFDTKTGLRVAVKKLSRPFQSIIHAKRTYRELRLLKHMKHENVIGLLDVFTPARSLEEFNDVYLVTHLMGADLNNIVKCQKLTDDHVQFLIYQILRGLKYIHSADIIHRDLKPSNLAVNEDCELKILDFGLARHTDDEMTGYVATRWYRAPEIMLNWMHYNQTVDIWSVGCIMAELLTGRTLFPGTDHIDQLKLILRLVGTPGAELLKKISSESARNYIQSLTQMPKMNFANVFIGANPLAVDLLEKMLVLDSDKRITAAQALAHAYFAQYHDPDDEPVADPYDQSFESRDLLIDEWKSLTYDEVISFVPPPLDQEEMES

For orientation: pIC50 means the negative decadic logarithm of the IC50, by convention in mol/L. Take `Cn1c(=O)n(-c2ccc(C(C)(C)C#N)cc2)c2c3cc(-c4cnc5ccccc5c4)ccc3ncc21` [BEZ-235]: in the data set with p110alpha H107R, the pIC50 is 7.74.

As usually defined, the pEC50 is the negative decadic logarithm of the EC50, by convention in mol/L. The inhibition is the change of the read-out against control, counted positive when it falls. A low value points to little suppression. By melting point is commonly meant the temperature of the solid-liquid transition. `CCNC(=O)Nc1ccc2ncc(-c3ccc(OC)c(O)c3)nc2n1` [Compound 46, 1-Ethyl-3-[3-(3-hydroxy-4-methoxy-phenyl)-pyrido[2,3-b]pyrazin-6-yl]-urea] displayed a melting point greater than 270 °C. Besides, at PI3Kalpha, the “PI3K inhibition, in words” value is reported as “inhibition of PI3K”. Also, the “Erk2 / MAPK inhibition, in words” value in data set [1] was “inhibition of PI3K and Erk2”. At Erk2, the pIC50 is greater than 6.30. Besides, the pIC50 against p38alpha was less than 4.00. The pIC50 in the data set on Jnk1 + Jnk2 is greater than 6.00. For the same molecule, in the data set with MDA-MB468, the pEC50 is greater than 5.00. The pEC50 in the data set with Hct116 is greater than 5.00. Besides, at 50 µM the inhibition in the data set on Phospho-Akt (Ser 473) (Homo sapiens, at 50 μM, 5 h) was 40%. Moreover, the “inhibition of cellular phospho-Akt / PI3K-Akt pathway, in words” value in the data set with Phospho-Akt (Ser 473) (setting [2]) is given as “inhibit both”. In addition, in the data set with Phospho-p90RSK (S380) (Homo sapiens, at 50 μM, 5 h), the inhibition at 50 µM stood at 100%. Also, the “inhibition of phospho-Rsk / Raf-Mek-Erk pathway, in words” value with Phospho-p90RSK (S380) (setting [2]) is reported as “inhibit both”.
